Test results from patent publication US11446398B2, “Regulated biocircuit systems” (Obsidian Therapeutics, Inc., priority 2016, dated 2022).

B1: OT-RLuc-004: ecDHFR (R12Y, Y100I); linker (SG); Renilla Luc; SEQ ID NO 213375 (protein)
chain: MISLIAALAVDYVIGMENAMPWNLPADLAWFKRNTLNKPVIMGRHTWESIGRPLPGRKNIILSSQPGTDDRVTWVKSVDEAIAACGDVPEIMVIGGGRVIEQFLPKAQKLYLTHIDAEVEGDTHFPDYEPDDWESVFSEFHDADAQNSHSYCFEILERRSGTSKVYDPEQRKRMITGPQWWARCKQMNVLDSFINYYDSEKHAENAVIFLHGNAASSYLWRHVVPHIEPVARCIIPDLIGMGKSGKSGNGSYRLLDHYKYLTAWFELLNLPKKIIFVGHDWGACLAFHYSYEHQDKIKAIVHAESVVDVIESWDEWPDIEEDIALIKSEEGEKMVLENNFFVETMLPSKIMRKLEPEEFAAYLEPFKEKGEVRRPTLSWPREIPLVKGGKPDVVQIVRNYNAYLRASDDLPKMFIESDPGFFSNAIVEGAKKFPNTEFVKVKGLHFSQEDAPDEMGKYIKSFVERVLKNEQ
B2: OT-RLuc-006: Renilla Luc; linker (SG); ecDHFR (R12Y, Y100I); SEQ ID NO 213377 (protein)
chain: MTSKVYDPEQRKRMITGPQWWARCKQMNVLDSFINYYDSEKHAENAVIFLHGNAASSYLWRHVVPHIEPVARCIIPDLIGMGKSGKSGNGSYRLLDHYKYLTAWFELLNLPKKIIFVGHDWGACLAFHYSYEHQDKIKAIVHAESVVDVIESWDEWPDIEEDIALIKSEEGEKMVLENNFFVETMLPSKIMRKLEPEEFAAYLEPFKEKGEVRRPTLSWPREIPLVKGGKPDVVQIVRNYNAYLRASDDLPKMFIESDPGFFSNAIVEGAKKFPNTEFVKVKGLHFSQEDAPDEMGKYIKSFVERVLKNEQSGISLIAALAVDYVIGMENAMPWNLPADLAWFKRNTLNKPVIMGRHTWESIGRPLPGRKNIILSSQPGTDDRVTWVKSVDEAIAACGDVPEIMVIGGGRVIEQFLPKAQKLYLTHIDAEVEGDTHFPDYEPDDWESVFSEFHDADAQNSHSYCFEILERR
B3: OT-RLuc-005: Renilla Luc; linker (SG); FKBP (E31G, F36V, R71G, K105E); SEQ ID NO 213376 (protein)
chain: MTSKVYDPEQRKRMITGPQWWARCKQMNVLDSFINYYDSEKHAENAVIFLHGNAASSYLWRHVVPHIEPVARCIIPDLIGMGKSGKSGNGSYRLLDHYKYLTAWFELLNLPKKIIFVGHDWGACLAFHYSYEHQDKIKAIVHAESVVDVIESWDEWPDIEEDIALIKSEEGEKMVLENNFFVETMLPSKIMRKLEPEEFAAYLEPFKEKGEVRRPTLSWPREIPLVKGGKPDVVQIVRNYNAYLRASDDLPKMFIESDPGFFSNAIVEGAKKFPNTEFVKVKGLHFSQEDAPDEMGKYIKSFVERVLKNEQSGGVQVETISPGDGRTFPKRGQTCVVHYTGMLGDGKKVDSSRDRNKPFKFMLGKQEVIRGWEEGVAQMSVGQGAKLTISPDYAYGATGHPGIIPPHATLVFDVELLELE
B4: OT-RLuc-001: Renilla Luc (constitutive); SEQ ID NO 213372 (protein)
chain: MTSKVYDPEQRKRMITGPQWWARCKQMNVLDSFINYYDSEKHAENAVIFLHGNAASSYLWRHVVPHIEPVARCIIPDLIGMGKSGKSGNGSYRLLDHYKYLTAWFELLNLPKKIIFVGHDWGACLAFHYSYEHQDKIKAIVHAESVVDVIESWDEWPDIEEDIALIKSEEGEKMVLENNFFVETMLPSKIMRKLEPEEFAAYLEPFKEKGEVRRPTLSWPREIPLVKGGKPDVVQIVRNYNAYLRASDDLPKMFIESDPGFFSNAIVEGAKKFPNTEFVKVKGLHFSQEDAPDEMGKYIKSFVERVLKNEQ

Columns and labels:
HCT116 cells = experiment: IL2 ELISA, dependence of DD-IL2 levels on Shield-1 dose; format: cell-based; conditions: 96-well plate, varying concentrations of Shield-1, DD-IL2 construct, read-out: ECK of Shield-1 (IL2 levels by IL2 ELISA)
Text: FKBP (L106P) and ecDHFR (R12Y, Y100I) are well-characterized destabilizing domains which can confer instability to fusion partners (e.g., a POI). The instability is reversed by a synthetic ligand named Shield-1 that binds to FKBP; TMP that binds to DHFR. An IL2 polypeptide was linked to either FKBP (L106P) or ecDHFR (R12Y, Y100I). IL2 constructs were cloned into pLVX-IRES-Puro lentiviral vectors. An IL2 signal sequence was inserted at the N terminus of the construct.
To evaluate dependence of IL2 levels on Shield-1 dose, HCT116 cells were plated onto a 96-well plate and treated with varying concentrations of Shield-1. Media was then collected from cells and IL2 levels were quantified using IL2 ELISA (FIG. 20). IL2 increased with increase in Shield-1 concentration and plateaued at higher Shield-1 dose levels. The ECK of Shield-1 was determined to be 50 nM

HEK293T cells = experiment: IL12-p40 ELISA, Shield-1 dose and cell number dependent IL12 induction; format: cell-based, human; conditions: OT-IL12-004 transduced HEK293T cells, 24 hours
Procedure: Following overnight incubation, cells were treated with growth medium containing 0 to 10 μM Shield-1 for 24 hours. Media was then collected, diluted 400 fold and FKBP-IL12 levels were measured using IL12-p40 ELISA.

HCT-116 cells [1] = experiment: Luciferase expression by western blotting; format: cell-based; conditions: HCT-116 stably transduced; 1 μM Shield-1 or 10 μM Trimethoprim or vehicle, 24 hours; FIG. 22A
Procedure: DD regulated luciferase can be used to track cells in vivo e.g. T cells. Firefly luciferase or Renilla luciferase may be utilized as the payload. HCT-116 cells were stably transduced with the constitutive (OT-RLuc-001) or DD regulated constructs (OT-RLuc-002, OT-RLuc-003, OT-RLuc-004, OT-RLuc-005 and OT-RLuc-006). Cells were treated with 1 μM Shield-1, or 10 μM Trimethoprim or vehicle control for 24 hours and luciferase expression and activity was measured. Luciferase expression was measured via western blotting using Anti-Renilla luciferase and anti-Firefly luciferase antibodies (Abcam, Cambridge, UK). Blots were also probed with anti-GAPDH antibody to ensure even protein loading in all samples.

HEK-Blue sensor cells = experiment: HEK-Blue sensor cell assay for functional IL12 (Quanti-Blue); format: cell-based; conditions: HEK 293T transfected with 200 ng plasmid, 10 μM Shield-1 24 hours; media on HEK Blue sensor cells; FIG. 21A
Procedure: HEK-Blue sensor cells (InvivoGen, San Diego, Calif.) were utilized to evaluate whether DD regulated IL12 is capable of regulating signaling downstream of IL12. In these cells, the IL12 receptor, STAT4 and downstream transcriptional elements are tied to a reporter gene such that IL12 signaling can be monitored. To evaluate production of functional IL12, one million HEK 293T were transfected with 200 ng of OT-IL-12-003 plasmid using Lipofectamine 2000 (Thermo Fisher Scientific, Waltham, Mass.). 48 hours after transfection, cells were treated with growth media containing 10 μM Shield-1, incubated for another 24 hours, following which, media was collected. […] After overnight incubation, 20 μl media was removed from each well and incubated with 180 μl Quanti-Blue reagent (InvivoGen, San Diego, Calif.) for 30 minutes at 37° C. Absorption was measured at 620 nm using a spectrophotometer. […] Functional IL12 concentrations were determined by comparing the optical density of each sample with IL12 standard curve.
The dependence of functional IL12 production on the dose of Shield-1 used was also evaluated. […] Absorption was measured at 620 nm using a spectrophotometer. […] Functional IL12 concentrations were determined by comparing the optical density of each sample with IL12 standard curve.

HCT-116 cells [2] = experiment: Luciferase activity, luminescence reading; format: cell-based; conditions: 1 μM Shield-1 or 10 μM Trimethoprim or vehicle, 24 hours; coelentrazine or luciferin substrate; FIG. 22B
Procedure: Ligand dependent activity of Renilla and firefly luciferase constructs was also measured in using coelentrazine and luciferin substrates respectively. Cells were treated with 1 μM Shield-1, or 10 μM Trimethoprim or vehicle control for 24 hours, lysed with assay lysis buffer and incubated with the luciferase substrate. Luciferase activity was measured as luminescence reading using a luminometer and the values were compared to control comprising of lysis buffer and substrate.

Molecule | Luciferase expression, ligand dependent stabilization (western blotting) (HCT-116 cells [1]) | further results
CC[C@H](C(=O)N1CCCC[C@H]1C(=O)O[C@H](CCc1ccc(OC)c(OC)c1)c1cccc(OCCN2CCOCC2)c1)c1cc(OC)c(OC)c(OC)c1 [Shield-1] | – | EC50 (HCT116 cells): 50 nM; Shield-1 dose up to which IL12 induction increased, then plateaued (HEK293T cells): 1 µM
OT-RLuc-003: FKBP (F36V, 106P); linker (SG); Renilla Luc; SEQ ID NO 213374 | strong Shield-1 dependent stabilization | –
OT-IL12-003: p40 signal sequence; FKBP (F36V, L106P); furin (SARNRQKRS); p40; linker ((G4S)3); p35; SEQ ID NO 213301 | – | Media dilution at which measurable levels of functional IL12 were reached (HEK-Blue sensor cells): 640 fold
OT-FLuc-002: FKBP (F36V, 106P); linker (EF); Fluc; SEQ ID NO 213373 | modest stabilization | –
B1 | modest stabilization | –
B2 | modest stabilization | –
B3 | modest stabilization | –
B4 | expression of Renilla luciferase both in the presence and absence of ligand | Luciferase activity (luminescence reading) (HCT-116 cells [2]): high luciferase activity both in the presence and absence of ligand
